Source: patent US7576218B2, “4-phenylpiperdine-pyrazole CCR1 antagonists” (ChemoCentryx, Inc., priority 2005, dated 2009)

Molecular target: T1, CCR1 (Homo sapiens, UniProt P32246)
T1 sequence (P32246 1-355): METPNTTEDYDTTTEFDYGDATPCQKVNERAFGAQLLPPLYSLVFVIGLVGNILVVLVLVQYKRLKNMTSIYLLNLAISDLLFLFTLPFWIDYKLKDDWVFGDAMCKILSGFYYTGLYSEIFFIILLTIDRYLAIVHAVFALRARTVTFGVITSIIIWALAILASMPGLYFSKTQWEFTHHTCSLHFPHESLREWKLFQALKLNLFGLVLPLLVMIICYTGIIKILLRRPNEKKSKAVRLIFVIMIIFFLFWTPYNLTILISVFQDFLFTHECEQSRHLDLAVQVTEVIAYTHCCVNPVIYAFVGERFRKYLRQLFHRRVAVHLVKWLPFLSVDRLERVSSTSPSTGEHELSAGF
Test: CCR1 chemotaxis assay or binding assay (inhibition of CCR1 ligand binding / CCR1 mediated migration)
Experimental: Cells were grown under 5% CO2/95% air, 100% humidity at 37° C. and subcultured twice weekly at 1:5 (cells were cultured at a density range of 2×10^5 to 2×10^6 cells/mL) and harvested at 1×10^6 cells/mL.
Monocytes were isolated from human buffy coats using the Miltenyi bead isolation system (Miltenyi, Auburn, Calif.). Briefly, following a Ficoll gradient separation to isolate peripheral blood mononuclear cells, cells were washed with PBS and the red blood cells lysed using standard procedures. Remaining cells were labeled with anti-CD14 antibodies coupled to magnetic beads (Miltenyi Biotech, Auburn, Calif.). Labeled cells were passed through AutoMACS (Miltenyi, Auburn, Calif.) and positive fraction collected.
CCR1 expressing cells were centrifuged and resuspended in assay buffer (20 mM HEPES pH 7.1, 140 mM NaCl, 1 mM CaCl2, 5 mM MgCl2, and with 0.2% bovine serum albumin) to a concentration of 5×10^6 cells/mL for THP-1 cells and 5×10^5 for monocytes. Binding assays were set up as follows. […] Reactions were aspirated onto GF/B glass filters pre-soaked in 0.3% polyethyleneimine (PEI) solution, on a vacuum cell harvester (Packard Instruments; Meriden, Conn.). Scintillation fluid (40 μl; Microscint 20, Packard Instruments) was added to each well, the plates were sealed and radioactivity measured in a Topcount scintillation counter (Packard Instruments). Control wells containing either diluent only (for total counts) or excess MIP-1α or MIP-1β (1 μg/mL, for non-specific binding) were used to calculate the percent of total inhibition for compound. The computer program Prism from GraphPad, Inc. (San Diego, Calif.) was used to calculate IC50 values.
Chemotaxis assays were performed using 5 ? m pore polycarbonate, polyvinylpyrrolidone-coated filters in 96-well chemotaxis chambers (Neuroprobe; Gaithersburg, Md.) using chemotaxis buffer (Hank's balanced salt solution (HBSS) and 1% FBS). CCR1 chemokine ligands (i.e., MIP-1α, CCL15/Leukotactin; R&D Systems; Minneapolis, Minn.) are use to evaluate compound mediated inhibition of CCR1 mediated migration. Other chemokines (i.e., SDF-1α; R&D Systems; Minneapolis, Minn.) are used as specificity controls. […] The chambers were incubated 1-2 hours at 37° C., and the number of cells in the lower chamber quantified either by direct cell counts in five high powered fields per well or by the CyQuant assay (Molecular Probes), a fluorescent dye method that measures nucleic acid content and microscopic observation.
Equal numbers of cells were added to each well in the plate. The cells were then incubated with radiolabeled MIP-1α. Unbound ligand was removed by washing the cells, and bound ligand was determined by quantifying radioactive counts. […] Percent inhibition was determined by the equation:
In the assay, the amount of compound was varied; while cell number and ligand concentration were held constant.
THP-1 myelomonocytic leukemia cells, which resemble monocytes, as wells as freshly isolated monocytes, were used as targets for chemoattraction by CCR1 chemokine ligands (i.e., MIP-1α, CCL15/leukotactin). […] In this assay, the amount of compound was varied; while cell number and chemokine agonist concentrations were held constant. After the chemotaxis chambers were incubated 1-2 hours at 37° C., the responding cells in the lower chamber were quantified by labeling with the CyQuant assay (Molecular Probes), a fluorescent dye method that measures nucleic acid content, and by measuring with a Spectrafluor Plus (Tecan).

Question: Which IC50 does the source give for `Cc1c(Cl)c(C(F)(F)F)nn1CC(=O)N1CCC(C(=O)N2CCN(C)CC2)(c2ccc(Cl)cc2)CC1` [Example 18, 2-(4-chloro-5-methyl-3-trifluoromethyl-pyrazol-1-yl)-1-[4-(4-chloro-phenyl)-4-(4-methyl-piperazine-1-carbonyl)-piperidin-1-yl]-ethanone] here?
Answer: Its IC50 is > 25 µM.

Question: For `CNC(=O)C1(c2ccc(Cl)cc2)CCN(C(=O)Cn2nc(C(F)(F)F)c(Cl)c2C)CC1` [Example 13, 1-[2-(4-chloro-5-methyl-3-trifluoromethyl-pyrazol-1-yl)-acetyl]-4-(4-chloro-phenyl)-piperidine-4-methylamide], which IC50 is on record?
Answer: The IC50 was 1 to 25 µM.

Question: Which IC50 does the source give for `COc1cc(C2(C#N)CCN(C(=O)Cn3nc(C(F)(F)F)c(Cl)c3C)CC2)ccc1Cl` [Example 26] here?
Answer: Its IC50 is < 1 µM.

Question: Which IC50 does the source give for `Cc1c(Cl)c(C(F)(F)F)nn1CC(=O)N1CCC(C(=O)N2CCCC2)(c2ccc(Cl)cc2)CC1` [Example 15, 2-(4-chloro-5-methyl-3-trifluoromethyl-pyrazol-1-yl)-1-[4-(4-chloro-phenyl)-4-(pyrrolidine-1-carbonyl)-piperidin-1-yl]-ethanone] here?
Answer: Its IC50 is 1 to 25 µM.

Question: How did the IC50 turn out when `Cc1c(Cl)c(C(F)(F)F)nn1CC(=O)N1CCC(C(=O)N2CCNCC2)(c2ccc(Cl)cc2)CC1` [Example 17, 2-(4-chloro-5-methyl-3-trifluoromethyl-pyrazol-1-yl)-1-[4-(4-chloro-phenyl)-4-(piperazine-1-carbonyl)-piperidin-1-yl]-ethanone] was run?
Answer: Its IC50 is > 25 µM.

Question: Which IC50 does the source give for `CCC(=O)C1(c2ccccc2)CCN(C(=O)Cn2nc(C(F)(F)F)c(Cl)c2C)CC1` [Example 28, 1-(4-ethylcarbonyl-4-phenyl-piperidin-1-yl)-2-(4-chloro-5-methyl-3-trifluoromethyl-pyrazol-1-yl)-ethanone] here?
Answer: Its IC50 is 1 to 25 µM.

Question: For `CCCC(=O)C1(c2ccccc2)CCN(C(=O)Cn2nc(C(F)(F)F)c(Cl)c2C)CC1` [Example 29, 1-(4-propylcarbonyl-4-phenyl-piperidin-1-yl)-2-(4-chloro-5-methyl-3-trifluoromethyl-pyrazol-1-yl)-ethanone], which IC50 is on record?
Answer: The IC50 was < 1 µM.

Question: Which IC50 does the source give for `Cc1c(Cl)c(C(F)(F)F)nn1CC(=O)N1CCC(O)(c2ccc(Br)cc2)CC1` [Example 10, 2-(4-Chloro-5-methyl-3-trifluoromethyl-pyrazol-1-yl)-1-(4-hydroxy-4-(4-bromo)-phenyl-piperidin-1-yl)-ethanone] here?
Answer: Its IC50 is 1 to 25 µM.

Question: How did the IC50 turn out when `Cc1c(Cl)c(C(F)(F)F)nn1CC(=O)N1CCC(C#N)(c2ccc(Cl)cc2)CC1` [Example 1, 1-[2-(4-chloro-5-methyl-3-trifluoromethyl-pyrazol-1-yl)-acetyl]-4-(4-chloro-phenyl)-piperidine-4-carbonitrile] was run?
Answer: The IC50 was < 1 µM.

Question: For `Cc1c(Cl)c(-c2ncco2)nn1CC(=O)N1CCC(C#N)(c2ccc(Cl)cc2)CC1` [Example 3, 1-[2-(4-chloro-5-methyl-3-oxazol-2-yl-pyrazol-1-yl)-acetyl]-4-(4-chloro-phenyl)-piperidine-4-carbonitrile], which IC50 is on record?
Answer: The IC50 was < 1 µM.

Question: How did the IC50 turn out when `Cc1c(Cl)c(C(F)(F)F)nn1CC(=O)N1CCC(CO)(c2ccc(Cl)cc2)CC1` [Example 23, 2-(4-chloro-5-methyl-3-trifluoromethyl-pyrazol-1-yl)-1-[4-(4-chloro-phenyl)-4-hydroxymethyl-piperidin-1-yl]-ethanone] was run?
Answer: The IC50 was 1 to 25 µM.

Question: `Cc1c(Cl)c(C(F)(F)F)nn1CC(=O)N1CCC(C(=O)N2CCCCC2)(c2ccc(Cl)cc2)CC1` [Example 16, 2-(4-chloro-5-methyl-3-trifluoromethyl-pyrazol-1-yl)-1-[4-(4-chloro-phenyl)-4-(piperidine-1-carbonyl)-piperidin-1-yl]-ethanone] was tested. Which IC50 did it give?
Answer: Its IC50 is 1 to 25 µM.

Question: `COc1cc(C2(O)CCN(C(=O)Cn3nc(-c4ncco4)c(Cl)c3C)CC2)ccc1Cl` [Example 5, 1-[4-(4-Chloro-3-methoxy-phenyl)-4-hydroxy-piperidin-1-yl]-2-(4-chloro-5-methyl-3-oxazol-2-yl-pyrazol-1-yl)-ethanone] was tested. Which IC50 did it give?
Answer: Its IC50 is < 1 µM.

Question: For `Cc1c(Cl)c(C(F)(F)F)nn1CC(=O)N1CCC(O)(c2ccccc2)CC1` [Example 7, 2-(4-Chloro-5-methyl-3-trifluoromethyl-pyrazol-1-yl)-1-(4-hydroxy-4-phenyl-piperidin-1-yl)-ethanone], which IC50 is on record?
Answer: Its IC50 is 1 to 25 µM.

Question: Which IC50 does the source give for `Cc1c(Cl)c(C(F)(F)F)nn1CC(=O)N1CCC(O)(c2ccc(Cl)c(C(F)(F)F)c2)CC1` [Example 9, 2-(4-Chloro-5-methyl-3-trifluoromethyl-pyrazol-1-yl)-1-(4-hydroxy-4-(4-chloro-3-trifluoromethyl)-phenyl-piperidin-1-yl)-ethanone] here?
Answer: The IC50 was 1 to 25 µM.

Question: `COc1cc(C2(O)CCN(C(=O)Cn3nc(C(F)(F)F)c(Cl)c3C)CC2)ccc1Cl` [Example 4, 1-[4-(4-Chloro-3-methoxy-phenyl)-4-hydroxy-piperidin-1-yl]-2-(4-chloro-5-methyl-3-trifluoromethyl-pyrazol-1-yl)-ethanone] was tested. Which IC50 did it give?
Answer: The IC50 was < 1 µM.

Question: For `COC(=O)C1(c2ccc(Cl)cc2)CCN(C(=O)Cn2nc(C(F)(F)F)c(Cl)c2C)CC1` [Example 2, 1-[2-(4-chloro-5-methyl-3-trifluoromethyl-pyrazol-1-yl)-acetyl]-4-(4-chloro-phenyl)-piperidine-4-carboxylic acid methyl ester], which IC50 is on record?
Answer: Its IC50 is < 1 µM.

Question: For `Cc1c(Cl)c(C(F)(F)F)nn1CC(=O)N1CCC(C(=N)NO)(c2ccc(Cl)cc2)CC1` [Example 21, 1-[2-(4-chloro-5-methyl-3-trifluoromethyl-pyrazol-1-yl)-acetyl]-4-(4-chloro-phenyl)-N-hydroxy-piperidine-4-carboxamidine], which IC50 is on record?
Answer: Its IC50 is < 1 µM.

Question: Which IC50 does the source give for `COc1cc(C2(O)CCN(C(=O)COc3ccc(Cl)cc3)CC2)ccc1Cl` [Example 6, 1-[4-(4-Chloro-3-methoxy-phenyl)-4-hydroxy-piperidin-1-yl]-2-(4-chloro-phenoxy)-ethanone] here?
Answer: The IC50 was < 1 µM.

Question: Which IC50 does the source give for `Cc1c(Cl)c(C(F)(F)F)nn1CC(=O)N1CCC(CN)(c2ccc(Cl)cc2)CC1` [Example 24, 1-[4-aminomethyl-4-(4-chloro-phenyl)-piperidin-1-yl]-2-(4-chloro-5-methyl-3-trifluoromethyl-pyrazol-1-yl)-ethanone] here?
Answer: The IC50 was 1 to 25 µM.

Question: Which IC50 does the source give for `Cc1c(Cl)c(C(F)(F)F)nn1CC(=O)N1CCC(C(=O)O)(c2ccc(Cl)cc2)CC1` [Example 25, 1-[2-(4-chloro-5-methyl-3-trifluoromethyl-pyrazol-1-yl)-acetyl]-4-(4-chloro-phenyl)-piperidine-4-carboxylic acid] here?
Answer: The IC50 was > 25 µM.

Question: For `Cc1c(Cl)c(C(F)(F)F)nn1CC(=O)N1CCC(c2ccc(Cl)cc2)(c2nnn[nH]2)CC1` [Example 20, 2-(4-chloro-5-methyl-3-trifluoromethyl-pyrazol-1-yl)-1-[4-(4-chloro-phenyl)-4-(1H-tetrazol-5-yl)-piperidin-1-yl]-ethanone], which IC50 is on record?
Answer: The IC50 was 1 to 25 µM.

Question: Which IC50 does the source give for `CC(=O)C1(c2ccccc2)CCN(C(=O)Cn2nc(C(F)(F)F)c(Cl)c2C)CC1` [Example 27, 1-(4-Acetyl-4-phenyl-piperidin-1-yl)-2-(4-chloro-5-methyl-3-trifluoromethyl-pyrazol-1-yl)-ethanone] here?
Answer: Its IC50 is 1 to 25 µM.

Question: For `Cc1c(Cl)c(C(F)(F)F)nn1CC(=O)N1CCC(C#N)(c2ccccc2)CC1` [Example 12, 1-[2-(4-chloro-5-methyl-3-trifluoromethyl-pyrazol-1-yl)-acetyl]-4-phenyl-piperidine-4-carbonitrile], which IC50 is on record?
Answer: Its IC50 is 1 to 25 µM.

Question: For `Cc1c(Cl)c(C(F)(F)F)nn1CC(=O)N1CCC(O)(c2cccc(C(F)(F)F)c2)CC1` [Example 11, 2-(4-Chloro-5-methyl-3-trifluoromethyl-pyrazol-1-yl)-1-(4-hydroxy-4-(3-trifluoromethyl)-phenyl-piperidin-1-yl)-ethanone], which IC50 is on record?
Answer: The IC50 was 1 to 25 µM.

Question: Which IC50 does the source give for `CCN(CC)C(=O)C1(c2ccc(Cl)cc2)CCN(C(=O)Cn2nc(C(F)(F)F)c(Cl)c2C)CC1` [Example 14, 1-[2-(4-chloro-5-methyl-3-trifluoromethyl-pyrazol-1-yl)-acetyl]-4-(4-chloro-phenyl)-piperidine-4-diethylamide] here?
Answer: Its IC50 is 1 to 25 µM.

Question: For `Cc1c(Cl)c(C(F)(F)F)nn1CC(=O)N1CCC(O)(c2ccc(Cl)cc2)CC1` [Example 8, 2-(4-Chloro-5-methyl-3-trifluoromethyl-pyrazol-1-yl)-1-(4-hydroxy-4-(4-chloro)-phenyl-piperidin-1-yl)-ethanone], which IC50 is on record?
Answer: The IC50 was < 1 µM.

Question: `Cc1c(Cl)c(C(F)(F)F)nn1CC(=O)N1CCC(C(=O)N2CCOCC2)(c2ccc(Cl)cc2)CC1` [Example 19, 2-(4-chloro-5-methyl-3-trifluoromethyl-pyrazol-1-yl)-1-[4-(4-chloro-phenyl)-4-(4-morpholine-1-carbonyl)-piperidin-1-yl]-ethanone morpholine] was tested. Which IC50 did it give?
Answer: The IC50 was 1 to 25 µM.

Question: `Cc1c(Cl)c(C(F)(F)F)nn1CC(=O)N1CCC(C(N)=O)(c2ccc(Cl)cc2)CC1` [Example 22, 1-[2-(4-chloro-5-methyl-3-trifluoromethyl-pyrazol-1-yl)-acetyl]-4-(4-chloro-phenyl)-piperidine-4-carboxylic acid amide] was tested. Which IC50 did it give?
Answer: The IC50 was < 1 µM.
